Patent US8388930B2, “Diagnosis and assessment of skeletal related disease using calcium 41” (Lawrence LIvermore National Security, LLC, priority 2004, dated 2013)

Legend:
[1] = urinary 41Ca/Ca variability in monthly urine samples after oral 41Ca dose; type: in vivo; details: days 500 to 700 after 1.2 ng oral 41Ca dose, six human volunteers
From the text: ^41Ca remains quantifiable via accelerator mass spectrometry (AMS) in human urine and blood for many years following a single chemically and radiologically benign oral or intravenous dose; this longevity makes urinary ^41Ca content very specific to bone turnover. […] Applicants also measured tracer distribution and increased ^41Ca release from pre-labeled bones in a human xenograft model of metastatic bone disease from prostate cancer. […] Low natural variability of urinary ^41Ca/Ca in humans will enable a non-invasive, highly sensitive clinical measure of bone turnover perturbations from metastatic bone disease.

[2] = tested on: human xenograft model of metastatic bone disease from prostate cancer; assay: tracer distribution and 41Ca release from pre-labeled bones in human xenograft model of metastatic bone disease; type: in vivo, nude mice
From the text: However, the ultimate value of these techniques for individual patients is uncertain, due (in part) to high natural variability of biomarkers in urine and serum (Kannis J A, McCloskey E V. Bone turnover and biochemical markers in malignancy. Cancer. 1997; 80:1538-45). Applicants believe that labeling the human skeleton with a ^41Ca tracer and monitoring urinary tracer abundance will provide a non-invasive, highly sensitive, clinically useful measure of bone turnover. The longest half-life isotope of calcium, ^41Ca, provides a sensitive method for tracking short and long-term bone turnover parameters. Due to extremely low natural abundance (<10^−15), a single sub-physiological ^41Ca dose (less than 1 ug=4 kBq=0.1 uCi) remains quantifiable via accelerator mass spectrometry (AMS) in blood and urine for many years: this longevity within the body's primary calcium pool makes ^41Ca variation specific to bone turnover (Weaver C M. Use of calcium tracers and biomarkers to determine calcium kinetics and bone turnover. Bone. 1998; 22(5):103S-104S). […]
^41Ca remains quantifiable via accelerator mass spectrometry (AMS) in human urine and blood for many years following a single chemically and radiologically benign oral or intravenous dose; this longevity makes urinary ^41Ca content very specific to bone turnover. […]

[3] = cited from earlier work

[41Ca] [^41Ca, radioactive calcium isotope ^41Ca]
41Ca/Ca scatter about individual linear fits [1]: 5±3%
tracer distribution ([2]; human xenograft tumor model in nude mice): preferentially labels bone
serum 41Ca/Ca correlation with disease measures ([2]; serum, pre-labeled bones, xenograft model of prostate cancer bone metastasis): positively correlating with tumor size, skeletal disruption, serum tumor markers, and degree of hypercalcemia
lifetime radioactive exposure from ingested dose ([3]; ingested): < 2e-10 Sv/Bq
lifetime radioactive exposure from injected dose ([3]; injected): < 7e-10 Sv/Bq
